We go through 21 molecules from US20250084087A1, “BICYCLIC HETEROCYCLES AS MRGPRX2 ANTAGONISTS” (Incyte Corporation, priority 2023, published 2025).

Broadly, the IC50 is the concentration needed to halve the response being measured.

Common to all, as to format: cell-based
The target of experiment [1] is T1, MRGPRX2 (Homo sapiens, UniProt Q96LB1).
T1 sequence (Q96LB1 1-330): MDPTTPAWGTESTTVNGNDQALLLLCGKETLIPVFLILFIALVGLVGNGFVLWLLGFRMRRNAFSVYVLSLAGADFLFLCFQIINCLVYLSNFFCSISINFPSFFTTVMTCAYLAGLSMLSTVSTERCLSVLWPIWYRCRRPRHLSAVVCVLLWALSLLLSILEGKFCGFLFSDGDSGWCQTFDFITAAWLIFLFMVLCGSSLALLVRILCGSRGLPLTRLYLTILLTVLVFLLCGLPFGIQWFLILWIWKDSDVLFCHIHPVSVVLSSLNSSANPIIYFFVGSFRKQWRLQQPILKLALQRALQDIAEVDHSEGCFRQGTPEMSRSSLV
The experiment in a line: MRGPRX2 IP1 HTRF assay. Details: host or cells: CHO-K1. Particulars: CHO-K1 cells stably expressing human MRGPRX2; IP1 accumulation; agonist Cortistatin 14 1 μM. An outline of the steps: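 CHO-K1 cells stably expressing human MRGPRX2, preincubated with compound 1 h at 37 °C, then stimulated with 1 μM Cortistatin 14 for 1 h. IP1 measured by HTRF against standard curve, normalized to DMSO and reference antagonist controls; IC50 from 3- or 4-parameter Hill fit.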
A general note: In TR-FRET formats the signal depends on donor and acceptor labels being close together.

The target in experiment [2] is T1, MRGPRX2. In words: MRGPRX2 FLIPR calcium mobilization assay. Details: host or cells: CHO-K1. Particulars: CHO-K1 cells stably expressing human MRGPRX2; Ca2+ release; agonist Cortistatin-14 at EC80. The procedure, abridged: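 CHO-K1 cells stably expressing the receptor, loaded with Calcium 6 dye, then preincubated 30 min at r.t. with compound in HBSS/20 mM HEPES pH 7.4. Cortistatin-14 at EC80 added; baseline-adjusted maximum RFU read over 110 s. IC50 from 3- or 4-parameter Hill fit.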
On the technique in general: Calcium assays in cells follow changes in intracellular calcium, usually with a dye or a luminescent sensor.

Experiment [3] addresses T1, MRGPRX2. In words: MRGPRX2 β-Arrestin recruitment assay (PathHunter). The settings on record: PathHunter CHO-K1 MRGPRX2 β-Arrestin cell line; agonist Cortistatin 14 0.25 μM. Also on record: host or cells: CHO-K1 (PathHunter). The procedure, abridged:
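CHO-K1 PathHunter cells co-expressing ProLink-tagged MRGPRX2 and enzyme-acceptor-tagged β-arrestin were preincubated with compound 1 h at 37° C., then stimulated with cortistatin-14 (0.25 μM final) for 90 min. Enzyme-complementation luminescence read after 1 h detection; data normalized to DMSO and reference antagonist, IC50 from 3- or 4-parameter Hill fit.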
For orientation: Arrestin recruitment assays detect the binding of arrestin to an activated receptor.

With `NS(=O)(=O)N1CC(CNc2cc(C(F)(F)F)nc3cc(C(F)(F)F)nn23)(c2ccc(F)cn2)C1` [Example 59, 3-(((2,5-Bis(trifluoromethyl)pyrazolo[1,5-a]pyrimidin-7-yl)amino)methyl)-3-(5-fluoropyridin-2-yl)azetidine-1-sulfonamide], the IC50 at MRGPRX2 [1], at MRGPRX2 [2] and on MRGPRX2 [3] was 0.1 to 100 nM in each case.

Turning to `COc1cc(NCC2(c3ccc(F)cc3)CN(S(N)(=O)=O)C2)n2nc(C(F)(F)F)cc2n1` [Example 106, 3-(4-Fluorophenyl)-3-(((5-methoxy-2-(trifluoromethyl)pyrazolo[1,5-a]pyrimidin-7-yl)amino)methyl)azetidine-1-sulfonamide], the IC50 at MRGPRX2 [1], at MRGPRX2 [2] and on MRGPRX2 [3] was 0.1 to 100 nM in each case.

Consider `NS(=O)(=O)N1CC(CNc2cc(C(F)(F)F)nc3cc(C(F)(F)F)nn23)(n2cc(F)cn2)C1` [Example 9, 3-(((2,5-Bis(trifluoromethyl)pyrazolo[1,5-a]pyrimidin-7-yl)amino)methyl)-3-(4-fluoro-1H-pyrazol-1-yl)azetidine-1-sulfonamide], for which the IC50 at MRGPRX2 [1], on MRGPRX2 [2] and at MRGPRX2 [3] was 0.1 to 100 nM throughout.

For `NS(=O)(=O)N1CC[C@](CNc2cc(C(F)(F)F)nc3cc(C(F)(F)F)nn23)(c2ccccc2)C1` (stereo in doubt) [Example 3, 3-(((2,5-Bis(trifluoromethyl)pyrazolo[1,5-a]pyrimidin-7-yl)amino)methyl)-3-phenylpyrrolidine-1-sulfonamide], the IC50 on MRGPRX2 [1] was 0.1 to 100 nM; on MRGPRX2 [2] it was 0.1 to 100 nM; on MRGPRX2 [3], 100 to 1000 nM.

With `NC(=O)N1CC(CNc2cc(C(F)(F)F)nc3cc(Br)nn23)(c2ccc(Cl)cc2)C1` [Example 58, 3-(((2-Bromo-5-(trifluoromethyl)pyrazolo[1,5-a]pyrimidin-7-yl)amino)methyl)-3-(4-chlorophenyl)azetidine-1-carboxamide], the IC50 at MRGPRX2 [1], at MRGPRX2 [2] and at MRGPRX2 [3] was 0.1 to 100 nM each time.

`O=C(N[C@H]1CC[C@H](O)CC1)N1CC(CNc2cc(C(F)(F)F)nc3cc(C(F)(F)F)nn23)(c2ccc(F)cc2)C1` [Example 48, 3-(((2,5-Bis(trifluoromethyl)pyrazolo[1,5-a]pyrimidin-7-yl)amino)methyl)-3-(4-fluorophenyl)-N-((1r,4r)-4-hydroxycyclohexyl)azetidine-1-carboxamide]: the IC50 on MRGPRX2 [1], on MRGPRX2 [2] and at MRGPRX2 [3] was 0.1 to 100 nM each time.

Turning to `Cc1cc2nc(C(F)(F)F)cc(NCC3(c4ccccc4)CCNCC3)n2n1` [Example 8, 2-Methyl-N-((4-phenylpiperidin-4-yl)methyl)-5-(trifluoromethyl)pyrazolo[1,5-a]pyrimidin-7-amine], the results for the IC50 on MRGPRX2 [1], at MRGPRX2 [2] and at MRGPRX2 [3] were 100 to 1000 nM, 0.1 to 100 nM and 0.1 to 100 nM, respectively.

In the case of `COc1ccc(C2(CNc3cccc4nc(C(F)(F)F)cn34)CCOCC2)cc1` [Example 39, N-((4-(4-Methoxyphenyl)tetrahydro-2H-pyran-4-yl)methyl)-2-(trifluoromethyl)imidazo[1,2-a]pyridin-5-amine], the IC50 on MRGPRX2 [1], at MRGPRX2 [2] and at MRGPRX2 [3] was 0.1 to 100 nM each time.

As for `NC(=O)N1CC(CNc2cccc3nc(C(F)(F)F)nn23)(c2ccc(F)cc2)C1` [Example 33, 3-(4-Fluorophenyl)-3-(((2-(trifluoromethyl)-[1,2,4]triazolo[1,5-a]pyridin-5-yl)amino)methyl)azetidine-1-carboxamide], the IC50 on MRGPRX2 [1], on MRGPRX2 [2] and on MRGPRX2 [3] was 0.1 to 100 nM each time.

As to `NC(=O)N1CC(CNc2cc(Cl)nc3cc(C(F)(F)F)nn23)(c2ccc(F)cc2)C1` [Example 66, 3-(((5-Chloro-2-(trifluoromethyl)pyrazolo[1,5-a]pyrimidin-7-yl)amino)methyl)-3-(4-fluorophenyl)azetidine-1-carboxamide], the concentration for half-maximal inhibition (IC50) on MRGPRX2 [1], at MRGPRX2 [2] and on MRGPRX2 [3] was 0.1 to 100 nM in each case.

As to `NS(=O)(=O)N1CCC(CNc2cc(C(F)(F)F)nc3cc(C(F)(F)F)nn23)(c2ccccc2)CC1` [Example 6, 4-(((2,5-Bis(trifluoromethyl)pyrazolo[1,5-a]pyrimidin-7-yl)amino)methyl)-4-phenylpiperidine-1-sulfonamide], the IC50 at MRGPRX2 [1], on MRGPRX2 [2] and on MRGPRX2 [3] was 0.1 to 100 nM in each case.

Consider `NS(=O)(=O)N1CC(CNc2cc(C(F)(F)F)nc3cc(C4CC4)nn23)(n2cccn2)C1` [Example 94, 3-(((2-Cyclopropyl-5-(trifluoromethyl)pyrazolo[1,5-a]pyrimidin-7-yl)amino)methyl)-3-(1H-pyrazol-1-yl)azetidine-1-sulfonamide], for which the concentration for half-maximal inhibition (IC50) at MRGPRX2 [1] lay within 100 to 1000 nM; at MRGPRX2 [2] it was 0.1 to 100 nM; on MRGPRX2 [3] it was 100 to 1000 nM.

For `CNC(=O)N1CCC(CNc2cccc3nc(C(F)(F)F)cn23)(c2ccccc2)CC1` [Example 21, N-Methyl-4-phenyl-4-(((2-(trifluoromethyl)imidazo[1,2-a]pyridin-5-yl)amino)methyl)piperidine-1-carboxamide], the IC50 at MRGPRX2 [1], on MRGPRX2 [2] and on MRGPRX2 [3] was 0.1 to 100 nM in each case.

Turning to `Fc1ccc(C2(CNc3cccc4nc(C(F)(F)F)cn34)CCC2)cc1` [Example 36, N-((1-(4-Fluorophenyl)cyclobutyl)methyl)-2-(trifluoromethyl)imidazo[1,2-a]pyridin-5-amine], the concentration for half-maximal inhibition (IC50) at MRGPRX2 [1], on MRGPRX2 [2] and on MRGPRX2 [3] was 0.1 to 100 nM each time.

For the molecule `CN1CCN(C2CC(CNc3cc(C(F)(F)F)nc4cc(Br)nn34)(c3ccccc3)C2)CC1` (stereo not drawn) [Example 43, 2-Bromo-N-((3-(4-methylpiperazin-1-yl)-1-phenylcyclobutyl)methyl)-5-(trifluoromethyl)pyrazolo[1,5-a]pyrimidin-7-amine], the IC50 on MRGPRX2 [1], on MRGPRX2 [2] and on MRGPRX2 [3] was 0.1 to 100 nM each time.

For the molecule `N#Cc1cnc(N2CC(CNc3cc(C(F)(F)F)nc4cc(C(F)(F)F)nn34)(c3ccc(F)cc3)C2)cn1` [Example 45, 5-(3-(((2,5-Bis(trifluoromethyl)pyrazolo[1,5-a]pyrimidin-7-yl)amino)methyl)-3-(4-fluorophenyl)azetidin-1-yl)pyrazine-2-carbonitrile], the IC50 on MRGPRX2 [1], at MRGPRX2 [2] and on MRGPRX2 [3] was 0.1 to 100 nM in each case.

Turning to `CNC(=O)N1CCC(CNc2cc(C)nc3nc(C(F)(F)F)nn23)(c2ccccc2)CC1` [Example 18, N-Methyl-4-(((5-methyl-2-(trifluoromethyl)-[1,2,4]triazolo[1,5-a]pyrimidin-7-yl)amino)methyl)-4-phenylpiperidine-1-carboxamide], the IC50 on MRGPRX2 [1], on MRGPRX2 [2] and at MRGPRX2 [3] was 0.1 to 100 nM in each case.

As for `Cc1cc(NCC2(c3ccc(F)cc3)CN(C(N)=O)C2)n2nc(C(F)(F)F)cc2n1` [Example 67, 3-(4-Fluorophenyl)-3-(((5-methyl-2-(trifluoromethyl)pyrazolo[1,5-a]pyrimidin-7-yl)amino)methyl)azetidine-1-carboxamide], the IC50 at MRGPRX2 [1], on MRGPRX2 [2] and at MRGPRX2 [3] was 0.1 to 100 nM each time.

Consider `O=C(N[C@H]1C[C@H](O)C1)N1CC(CNc2cc(C(F)(F)F)nc3cc(C(F)(F)F)nn23)(c2ccc(F)cc2)C1` [Example 49, 3-(((2,5-Bis(trifluoromethyl)pyrazolo[1,5-a]pyrimidin-7-yl)amino)methyl)-3-(4-fluorophenyl)-N-((1r,3r)-3-hydroxycyclobutyl)azetidine-1-carboxamide], for which the IC50 on MRGPRX2 [1], at MRGPRX2 [2] and at MRGPRX2 [3] was 0.1 to 100 nM each time.

Turning to `CC(=O)N1CCC(CNc2cccc3nc(C(F)(F)F)cn23)(c2ccccc2)CC1` [Example 20, 1-(4-Phenyl-4-(((2-(trifluoromethyl)imidazo[1,2-a]pyridin-5-yl)amino)methyl)piperidin-1-yl)ethan-1-one], the 50% inhibitory concentration (IC50) on MRGPRX2 [1], on MRGPRX2 [2] and on MRGPRX2 [3] was 0.1 to 100 nM in each case.

For `NS(=O)(=O)N1CC(CNc2cccc3nc(C(F)(F)F)nn23)(c2ccc(F)cc2)C1` [Example 32, 3-(4-Fluorophenyl)-3-(((2-(trifluoromethyl)-[1,2,4]triazolo[1,5-a]pyridin-5-yl)amino)methyl)azetidine-1-sulfonamide], the IC50 at MRGPRX2 [1], at MRGPRX2 [2] and on MRGPRX2 [3] was 0.1 to 100 nM in each case.
